According to paper PMC6960285, “Unique Microbial Catabolic Pathway for the Human Core N-Glycan Constituent Fucosyl-α-1,6-N-Acetylglucosamine-Asparagine” (mBio, 2020):

Columns and labels:
AlfC = target: T1, AlfC (Lacticaseibacillus paracasei, UniProt A0A422MHI3); test: transfucosylation, product by HPLC and NMR; format: biochemical; conditions: acceptor, 100 mM; donor 50 mM pNP-fuc; 100 mM Tris-HCl pH 7.0, 42°C
T1 construct: gene BN194_28780; 6xHis-AlfC from E. coli DH10B with pQEalfC, purified as earlier published
T1 sequence (A0A422MHI3 1-344): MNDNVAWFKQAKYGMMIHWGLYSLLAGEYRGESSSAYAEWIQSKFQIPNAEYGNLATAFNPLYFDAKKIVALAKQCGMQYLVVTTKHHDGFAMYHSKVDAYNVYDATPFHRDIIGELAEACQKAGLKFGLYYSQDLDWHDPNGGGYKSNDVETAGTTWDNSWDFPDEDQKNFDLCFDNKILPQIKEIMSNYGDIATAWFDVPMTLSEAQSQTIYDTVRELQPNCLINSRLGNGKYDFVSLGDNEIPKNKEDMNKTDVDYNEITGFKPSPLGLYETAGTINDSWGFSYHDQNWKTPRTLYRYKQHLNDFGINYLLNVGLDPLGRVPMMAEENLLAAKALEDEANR

[1] = target: His-tagged AsnA2, N(4)-(β-N-acetylglucosaminyl)-L-asparaginase (glycosylasparaginase) of Lactobacillus casei BL23 (Lactobacillus casei BL23); test: SEC; size exclusion chromatography of purified His-tagged AsnA2 on a HiPrep 16/60 Sephacryl S-300 HR column, calibrated with five standard proteins; native molecular weight estimated

Compound	transfucosylation, product by HPLC and NMR (AlfC)	stoichiometry N [1]
CC(=O)N[C@@H]1[C@@H](O)[C@H](O)[C@@H](CO)O[C@H]1NC(=O)C[C@H](N)C(=O)O [GlcNAc-Asn]	the ability of AlfC to use GlcNAc-Asn as the acceptor was tested	
His-tagged AsnA2, N(4)-(β-N-acetylglucosaminyl)-L-asparaginase (glycosylasparaginase) of Lactobacillus casei BL23 (enzyme)		2
